Where a chain is given by its changes, count along the chain named.
How the values were obtained:
[1] = biological target: T1, Type-1 angiotensin II receptor (Oryctolagus cuniculus, UniProt P34976); experiment: biochemical
T1 sequence (P34976 whole entry): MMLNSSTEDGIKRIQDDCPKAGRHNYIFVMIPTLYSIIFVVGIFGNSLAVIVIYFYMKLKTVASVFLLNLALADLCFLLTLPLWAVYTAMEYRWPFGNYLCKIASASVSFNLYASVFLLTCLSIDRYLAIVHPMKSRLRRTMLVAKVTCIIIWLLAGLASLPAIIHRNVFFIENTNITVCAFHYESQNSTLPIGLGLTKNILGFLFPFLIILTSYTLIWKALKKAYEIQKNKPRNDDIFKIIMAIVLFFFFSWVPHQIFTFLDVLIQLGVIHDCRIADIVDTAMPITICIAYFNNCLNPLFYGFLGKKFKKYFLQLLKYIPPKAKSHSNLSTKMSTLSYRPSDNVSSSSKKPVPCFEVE
Description: Binding affinity against AT1 receptor in rabbit aorta

physchem = details: octanol/water
Description: Partition coefficient (logP)

[2] = biological target: T2, Angiotensin II receptor (Homo sapiens) (UniProt P30556+P50052); experiment: Ratio of receptor binding affinity AT2/AT1 in human adrenal tissue in th+e presence of 2 mg/ml bovine serum albumin; type: protein assay
T2 sequence (P30556 whole entry, looked up): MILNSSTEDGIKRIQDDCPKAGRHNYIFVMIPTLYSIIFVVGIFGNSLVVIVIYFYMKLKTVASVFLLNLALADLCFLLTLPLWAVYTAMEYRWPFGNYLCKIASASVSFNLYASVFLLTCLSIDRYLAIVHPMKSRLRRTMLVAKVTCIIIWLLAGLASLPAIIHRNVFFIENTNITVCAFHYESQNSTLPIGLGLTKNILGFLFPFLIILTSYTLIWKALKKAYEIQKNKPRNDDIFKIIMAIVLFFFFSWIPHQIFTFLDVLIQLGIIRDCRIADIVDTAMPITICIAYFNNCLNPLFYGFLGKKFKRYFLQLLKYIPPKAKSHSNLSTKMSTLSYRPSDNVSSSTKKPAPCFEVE
T2 sequence (P50052 whole entry, looked up): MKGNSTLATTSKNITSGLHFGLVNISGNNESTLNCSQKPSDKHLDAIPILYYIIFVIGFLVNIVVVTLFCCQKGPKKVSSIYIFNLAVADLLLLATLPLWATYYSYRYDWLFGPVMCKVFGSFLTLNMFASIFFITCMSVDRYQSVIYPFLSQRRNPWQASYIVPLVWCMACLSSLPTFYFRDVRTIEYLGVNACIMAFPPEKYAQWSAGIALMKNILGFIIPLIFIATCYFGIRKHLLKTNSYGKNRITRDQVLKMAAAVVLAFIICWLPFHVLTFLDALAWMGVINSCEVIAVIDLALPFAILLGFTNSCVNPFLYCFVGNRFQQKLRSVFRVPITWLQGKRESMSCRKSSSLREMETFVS

[3] = biological target: T3, Angiotensin II receptor (AT-1) type-1 (Rattus norvegicus, UniProt P29089+P25095); experiment: Binding affinity against AT1 receptor in rat adrenal tissue; type: tissue-based
T3 sequence (P29089 whole entry): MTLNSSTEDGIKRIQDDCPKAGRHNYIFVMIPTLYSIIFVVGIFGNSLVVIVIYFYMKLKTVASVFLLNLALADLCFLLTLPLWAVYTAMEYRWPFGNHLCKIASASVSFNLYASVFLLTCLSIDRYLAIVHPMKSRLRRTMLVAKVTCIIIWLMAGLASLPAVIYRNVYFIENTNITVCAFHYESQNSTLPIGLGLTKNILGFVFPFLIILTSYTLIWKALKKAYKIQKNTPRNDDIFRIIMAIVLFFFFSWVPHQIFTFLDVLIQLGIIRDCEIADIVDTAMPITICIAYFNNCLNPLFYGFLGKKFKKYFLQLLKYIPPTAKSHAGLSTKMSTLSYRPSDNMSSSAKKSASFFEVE
T3 sequence (P25095 whole entry): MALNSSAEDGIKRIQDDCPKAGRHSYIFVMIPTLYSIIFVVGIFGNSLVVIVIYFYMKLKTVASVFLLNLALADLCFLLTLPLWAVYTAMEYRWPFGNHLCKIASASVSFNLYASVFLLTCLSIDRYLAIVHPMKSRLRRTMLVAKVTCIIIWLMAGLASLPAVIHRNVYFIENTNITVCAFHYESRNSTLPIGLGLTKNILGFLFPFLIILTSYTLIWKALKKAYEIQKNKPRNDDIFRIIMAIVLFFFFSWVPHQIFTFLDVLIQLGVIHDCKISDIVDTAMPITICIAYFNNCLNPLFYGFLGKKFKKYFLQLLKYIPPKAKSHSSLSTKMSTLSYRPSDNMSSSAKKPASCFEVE

Rattus norvegicus [4] = organism: Rattus norvegicus; details: dose 1 mg/kg; route intravenous
[5] = biological target: T4, Type-1 angiotensin II receptor (Homo sapiens, UniProt P30556); experiment: biochemical
T4 sequence (P30556 whole entry): T1 sequence (P34976 whole entry) with M2I, A49V, V254I, V270I, H272R, K311R, S349T, V353A
Description: Binding affinity against AT1 receptor in human adrenal tissue

[6] = biological target: Angiotensin II receptor (Rattus norvegicus) (UniProt P29089+P25095+P35351); experiment: Ratio of receptor binding affinity AT2/AT1 in rat adrenal tissue
[7] = Ratio of receptor binding affinity of compound against rat midbrain tissue (AT2) to that of rabbit aorta (AT1); type: tissue-based
Rattus norvegicus [8] = organism: Rattus norvegicus; details: dose 1 mg/kg; route oral
[9] = biological target: T2, Angiotensin II receptor (Homo sapiens); experiment: Ratio of receptor binding affinity AT2/AT1 in human adrenal tissue in the presence of 2 mg/ml bovine serum albumin; type: protein assay
[10] = Bioavailability in dog (dose of 1.0 mg/kg i.v.) 0.5 hr; type: ADME, organism-based, Canis lupus familiaris; details: in vivo, iv

Row | Structure (SMILES) | IC50 [1] [nM] | logP (physchem) | Duration (Rattus norvegicus [4]) [h] | also measured
1 | CCCCCN(C(=O)c1ccc(SC)cc1)c1ccc2ncn(Cc3ccc(-c4ccccc4-c4nnnn4C)cc3)c(=O)c2c1 | 6.4 | – | – | –
2 | COCCOCCN(C(=O)c1ccccc1)c1ccc2ncn(Cc3ccc(-c4ccccc4-c4nnnn4C)cc3)c(=O)c2c1 | 2.2 | 3.6 | – | –
3 | CCCCN(C(=O)c1ccc(OP(=O)([O-])[O-])cc1)c1ccc2ncn(Cc3ccc(-c4ccccc4-c4nnnn4C)cc3)c(=O)c2c1.[Na+].[Na+] | 2.2 | 2.9 | >3 | IC50 [3]: 3.9 nM; Ratio [7]: 1.9; Duration (Rattus norvegicus [8]): <3 h; IC50 [5]: 21.4 nM; Ratio [6]: 5.4; Ratio [9]: 10.9
4 | CCCCN(C(=O)c1ccc(F)cc1)c1ccc2ncn(Cc3ccc(-c4ccccc4-c4nnnn4C)cc3)c(=O)c2c1 | 2.3 | 4.7 | – | –
5 | CCCCCN(C(=O)c1ccc([S+](C)[O-])cc1)c1ccc2ncn(Cc3ccc(-c4ccccc4-c4nnnn4C)cc3)c(=O)c2c1 (stereo not given) | 21 | 4.3 | <3 | –
6 | CCCCS(=O)(=O)N(Cc1ccccc1)c1ccc2ncn(Cc3ccc(-c4ccccc4-c4nnnn4C)cc3)c(=O)c2c1 | 23 | – | – | –
7 | CCCCN(C(=O)c1ccc(O)cc1)c1ccc2ncn(Cc3ccc(-c4ccccc4-c4nnnn4C)cc3)c(=O)c2c1 | 1.2 | 4.2 | >3 | Ratio [2]: 6.8; IC50 [3]: 0.3 nM; IC50 [5]: 4 nM; Ratio [6]: 17
8 | CCCCCN(C(=O)c1ccc(S(C)(=O)=O)cc1)c1ccc2ncn(Cc3ccc(-c4ccccc4-c4nnnn4C)cc3)c(=O)c2c1 | 7.2 | 4.4 | – | –
9 | CC(=O)OCCCCN(C(=O)c1ccccc1)c1ccc2ncn(Cc3ccc(-c4ccccc4-c4nnnn4C)cc3)c(=O)c2c1 | 1.3 | 3.3 | – | –
10 | CCCCCN(C(=O)c1ccc(F)cc1)c1ccc2ncn(Cc3ccc(-c4ccccc4-c4nnnn4C)cc3)c(=O)c2c1 | 1.7 | 5.2 | – | –
11 | CCCCCN(C(=O)c1ccco1)c1ccc2ncn(Cc3ccc(-c4ccccc4-c4nnnn4C)cc3)c(=O)c2c1 | 3.2 | – | <3 | –
12 | CCCCCN(C(=O)c1ccccc1OC)c1ccc2ncn(Cc3ccc(-c4ccccc4-c4nnnn4C)cc3)c(=O)c2c1 | 1.1 | 5 | – | –
13 | CCCCCN(C(=O)c1cccnc1)c1ccc2ncn(Cc3ccc(-c4ccccc4-c4nnnn4C)cc3)c(=O)c2c1 | 4.5 | 4.3 | <3 | –
14 | CCCCCN(C(=O)c1ccncc1)c1ccc2ncn(Cc3ccc(-c4ccccc4-c4nnnn4C)cc3)c(=O)c2c1 | 2.8 | 4.3 | >3 | –
15 | CCCN(C(=O)c1ccc(F)cc1)c1ccc2ncn(Cc3ccc(-c4ccccc4-c4nnnn4C)cc3)c(=O)c2c1 | 1.9 | 4.3 | – | –
16 | CCOC(=O)CCCN(C(=O)c1ccccc1)c1ccc2ncn(Cc3ccc(-c4ccccc4-c4nnnn4C)cc3)c(=O)c2c1 | 2.3 | 4.1 | – | –
17 | CCCCCN(C(=O)c1ccc(O)cc1)c1ccc2ncn(Cc3ccc(-c4ccccc4-c4nnnn4C)cc3)c(=O)c2c1 | 0.9 | 4.7 | >3 | Ratio [2]: 5.8; IC50 [3]: 0.5 nM; IC50 [5]: 4.9 nM; Ratio [6]: 3.1

Continued, in another order:

Row | IC50 [1] [nM] | logP (physchem) | Structure (SMILES) | Duration (Rattus norvegicus [4]) [h] | also measured
18 | 8.4 | > 5.7 | CCCCCN(C(=O)c1ccc(OCc2ccccc2)cc1)c1ccc2ncn(Cc3ccc(-c4ccccc4-c4nnnn4C)cc3)c(=O)c2c1 | – | –
19 | 3.9 | 4.4 | COC(=O)c1ccc(CN(C(=O)c2ccccc2)c2ccc3ncn(Cc4ccc(-c5ccccc5-c5nnnn5C)cc4)c(=O)c3c2)cc1 | <3 | Ratio [2]: 1.7; IC50 [3]: 0.8 nM; IC50 [5]: 9.6 nM; Ratio [6]: 1.9
20 | 11 | 3.7 | Cn1nnnc1-c1ccccc1-c1ccc(Cn2cnc3ccc(N(Cc4ccccc4)C(=O)c4cccnc4)cc3c2=O)cc1 | – | –
21 | 4.9 | 3.6 | Cn1nnnc1-c1ccccc1-c1ccc(Cn2cnc3ccc(N(Cc4ccc(O)cc4)C(=O)c4ccccc4)cc3c2=O)cc1 | – | Ratio [2]: 0.8; IC50 [3]: 0.5 nM; IC50 [5]: 6 nM; Ratio [6]: 1.5
22 | 7.5 | 3.2 | Cn1nnnc1-c1ccccc1-c1ccc(Cn2cnc3ccc(N(Cc4ccccn4)C(=O)c4ccco4)cc3c2=O)cc1 | >3 | Ratio [2]: 0.3; IC50 [3]: 2.1 nM; Duration (Rattus norvegicus [8]): <3 h; IC50 [5]: 10.6 nM; Ratio [6]: 0.3
23 | 2.5 | – | Cn1nnnc1-c1ccccc1-c1ccc(Cn2cnc3ccc(N(C(=O)c4ccccc4)c4ccccc4)cc3c2=O)cc1 | – | –
24 | 9.3 | 3.8 | Cn1nnnc1-c1ccccc1-c1ccc(Cn2cnc3ccc(N(Cc4ccccc4)C(=O)c4ccccn4)cc3c2=O)cc1 | – | –
25 | 6.5 | 2.4 | Cn1nnnc1-c1ccccc1-c1ccc(Cn2cnc3ccc(N(Cc4ccc(C(=O)O)cc4)C(=O)c4ccccc4)cc3c2=O)cc1 | – | –
26 | 1.7 | 5.1 | CCCCCN(C(=O)c1ccccc1)c1ccc2ncn(Cc3ccc(-c4ccccc4-c4nnnn4C)cc3)c(=O)c2c1 | >3 | Ratio [2]: 1; bioavailability [10]: 73%; Duration (Rattus norvegicus [8]): >3 h; IC50 [5]: 6.9 nM
27 | 2.4 | 5.4 | CCCCC(=O)N(Cc1ccccc1)c1ccc2ncn(Cc3ccc(-c4ccccc4-c4nnnn4C)cc3)c(=O)c2c1 | >3 | Ratio [2]: 0.1; Duration (Rattus norvegicus [8]): >3 h; IC50 [5]: 5.7 nM
28 | 18.5 | – | Cn1nnnc1-c1ccccc1-c1ccc(Cn2cnc3ccc(N(CC(=O)c4ccco4)C(=O)c4ccccc4)cc3c2=O)cc1 | – | –
29 | 2.6 | – | Cn1nnnc1-c1ccccc1-c1ccc(Cn2cnc3ccc(N(CCCCO)C(=O)c4ccccc4)cc3c2=O)cc1 | – | –
30 | 3.4 | 3.7 | Cn1nnnc1-c1ccccc1-c1ccc(Cn2cnc3ccc(N(Cc4ccccc4)C(=O)c4ccncc4)cc3c2=O)cc1 | – | –
31 | 9.7 | 2.7 | Cn1nnnc1-c1ccccc1-c1ccc(Cn2cnc3ccc(N(Cc4ccccn4)C(=O)c4ccncc4)cc3c2=O)cc1 | <3 | Ratio [2]: 2.3; IC50 [3]: 2.9 nM; Duration (Rattus norvegicus [8]): <3 h; IC50 [5]: 4.4 nM; Ratio [6]: 1.6
32 | 20 | – | CCCCCN(Cc1ccccc1)c1ccc2ncn(Cc3ccc(-c4ccccc4-c4nnnn4C)cc3)c(=O)c2c1 | – | –
33 | 4.6 | 4.5 | Cn1nnnc1-c1ccccc1-c1ccc(Cn2cnc3ccc(N(Cc4ccccc4)C(=O)c4ccccc4)cc3c2=O)cc1 | <3 | IC50 [3]: 0.6 nM; Ratio [6]: 0.1
34 | 6.7 | 3.6 | Cn1nnnc1-c1ccccc1-c1ccc(Cn2cnc3ccc(N(Cc4ccccn4)C(=O)c4ccccc4)cc3c2=O)cc1 | – | Ratio [2]: 0.2; IC50 [3]: 1.3 nM; IC50 [5]: 5.09 nM; Ratio [6]: 0.5
35 | 1.6 | 3.9 | CCOCCN(C(=O)c1ccccc1)c1ccc2ncn(Cc3ccc(-c4ccccc4-c4nnnn4C)cc3)c(=O)c2c1 | – | –
36 | 5.5 | 3.4 | Cn1nnnc1-c1ccccc1-c1ccc(Cn2cnc3ccc(N(Cc4ccncc4)C(=O)c4ccccc4)cc3c2=O)cc1 | – | –
37 | 9.5 | 2.3 | Cn1nnnc1-c1ccccc1-c1ccc(Cn2cnc3ccc(N(CCCC(=O)O)C(=O)c4ccccc4)cc3c2=O)cc1 | – | –

From ChEMBL document CHEMBL1128754, “The SAR of 6-(N-alkyl-N-acyl)-2-propyl-3-[(2-tetrazol-5-yl)biphen-4-yl)methyl]-quinazolinones as balanced affinity antagonists of the human AT1 and AT2 receptors” (Bioorg Med Chem Lett, 1995)
